This assay deals with T1, LRRK2 (endogenous, HiBit tagged) (Homo sapiens, UniProt Q5S007).
T1 construct: endogenous in cells; host or cells: HEK293 cells with HiBit knock-in at the endogenous LRRK2 locus, stably expressing firefly luciferase
Put plainly: Endogenous LRRK2 degradation assay, endogenous gene C-terminally HiBit-tagged in HEK293 cells (Nano-Glo Dual Luciferase). In kind it is cell-based. The procedure, abridged: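 LRRK2-HiBit quantified via Nano-Glo Dual Luciferase in HEK293 knock-in cells co-expressing firefly luciferase, after 24 h exposure to compound (1 μM final top, 1:3, 11 points). Values normalised to DMSO median per plate and curve-fitted; Alamar Blue viability run alongside.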
Background: HiBiT is a short tag that completes a luciferase, so light tracks the accessible tagged protein.

Setting [1] is: endogenous HiBit-tagged LRRK2 in HEK293 cells, 24 hours treatment, read-out: **Endogenous WT Dmax (%).
The mark [2] stands for this setting: endogenous HiBit-tagged LRRK2 in HEK293 cells, 24 hours treatment, read-out: *Endogenous WT DC50.
[3] abbreviates: endogenous HiBit-tagged LRRK2 in HEK293 cells, 24 hours treatment, read-out: Endogenous WT DC50.
Where [4] appears, read: endogenous HiBit-tagged LRRK2 in HEK293 cells, 24 hours treatment, read-out: Endogenous WT Dmax.
Setting [5] is: endogenous HiBit-tagged LRRK2, HEK293 cells, 24 hours, read-out: **Endogenous WT Dmax (%).
Setting [6] is: endogenous HiBit-tagged LRRK2, HEK293 cells, 24 hours, read-out: *Endogenous WT DC50.

13 compounds from patent publication US12559506B2, “Indazole based compounds and associated methods of use” (Arvinas Operations, Inc., priority 2021, dated 2026) can be followed below.

Where two headings read alike, the source gives them in different places.

T1 sequence (Q5S007 whole entry): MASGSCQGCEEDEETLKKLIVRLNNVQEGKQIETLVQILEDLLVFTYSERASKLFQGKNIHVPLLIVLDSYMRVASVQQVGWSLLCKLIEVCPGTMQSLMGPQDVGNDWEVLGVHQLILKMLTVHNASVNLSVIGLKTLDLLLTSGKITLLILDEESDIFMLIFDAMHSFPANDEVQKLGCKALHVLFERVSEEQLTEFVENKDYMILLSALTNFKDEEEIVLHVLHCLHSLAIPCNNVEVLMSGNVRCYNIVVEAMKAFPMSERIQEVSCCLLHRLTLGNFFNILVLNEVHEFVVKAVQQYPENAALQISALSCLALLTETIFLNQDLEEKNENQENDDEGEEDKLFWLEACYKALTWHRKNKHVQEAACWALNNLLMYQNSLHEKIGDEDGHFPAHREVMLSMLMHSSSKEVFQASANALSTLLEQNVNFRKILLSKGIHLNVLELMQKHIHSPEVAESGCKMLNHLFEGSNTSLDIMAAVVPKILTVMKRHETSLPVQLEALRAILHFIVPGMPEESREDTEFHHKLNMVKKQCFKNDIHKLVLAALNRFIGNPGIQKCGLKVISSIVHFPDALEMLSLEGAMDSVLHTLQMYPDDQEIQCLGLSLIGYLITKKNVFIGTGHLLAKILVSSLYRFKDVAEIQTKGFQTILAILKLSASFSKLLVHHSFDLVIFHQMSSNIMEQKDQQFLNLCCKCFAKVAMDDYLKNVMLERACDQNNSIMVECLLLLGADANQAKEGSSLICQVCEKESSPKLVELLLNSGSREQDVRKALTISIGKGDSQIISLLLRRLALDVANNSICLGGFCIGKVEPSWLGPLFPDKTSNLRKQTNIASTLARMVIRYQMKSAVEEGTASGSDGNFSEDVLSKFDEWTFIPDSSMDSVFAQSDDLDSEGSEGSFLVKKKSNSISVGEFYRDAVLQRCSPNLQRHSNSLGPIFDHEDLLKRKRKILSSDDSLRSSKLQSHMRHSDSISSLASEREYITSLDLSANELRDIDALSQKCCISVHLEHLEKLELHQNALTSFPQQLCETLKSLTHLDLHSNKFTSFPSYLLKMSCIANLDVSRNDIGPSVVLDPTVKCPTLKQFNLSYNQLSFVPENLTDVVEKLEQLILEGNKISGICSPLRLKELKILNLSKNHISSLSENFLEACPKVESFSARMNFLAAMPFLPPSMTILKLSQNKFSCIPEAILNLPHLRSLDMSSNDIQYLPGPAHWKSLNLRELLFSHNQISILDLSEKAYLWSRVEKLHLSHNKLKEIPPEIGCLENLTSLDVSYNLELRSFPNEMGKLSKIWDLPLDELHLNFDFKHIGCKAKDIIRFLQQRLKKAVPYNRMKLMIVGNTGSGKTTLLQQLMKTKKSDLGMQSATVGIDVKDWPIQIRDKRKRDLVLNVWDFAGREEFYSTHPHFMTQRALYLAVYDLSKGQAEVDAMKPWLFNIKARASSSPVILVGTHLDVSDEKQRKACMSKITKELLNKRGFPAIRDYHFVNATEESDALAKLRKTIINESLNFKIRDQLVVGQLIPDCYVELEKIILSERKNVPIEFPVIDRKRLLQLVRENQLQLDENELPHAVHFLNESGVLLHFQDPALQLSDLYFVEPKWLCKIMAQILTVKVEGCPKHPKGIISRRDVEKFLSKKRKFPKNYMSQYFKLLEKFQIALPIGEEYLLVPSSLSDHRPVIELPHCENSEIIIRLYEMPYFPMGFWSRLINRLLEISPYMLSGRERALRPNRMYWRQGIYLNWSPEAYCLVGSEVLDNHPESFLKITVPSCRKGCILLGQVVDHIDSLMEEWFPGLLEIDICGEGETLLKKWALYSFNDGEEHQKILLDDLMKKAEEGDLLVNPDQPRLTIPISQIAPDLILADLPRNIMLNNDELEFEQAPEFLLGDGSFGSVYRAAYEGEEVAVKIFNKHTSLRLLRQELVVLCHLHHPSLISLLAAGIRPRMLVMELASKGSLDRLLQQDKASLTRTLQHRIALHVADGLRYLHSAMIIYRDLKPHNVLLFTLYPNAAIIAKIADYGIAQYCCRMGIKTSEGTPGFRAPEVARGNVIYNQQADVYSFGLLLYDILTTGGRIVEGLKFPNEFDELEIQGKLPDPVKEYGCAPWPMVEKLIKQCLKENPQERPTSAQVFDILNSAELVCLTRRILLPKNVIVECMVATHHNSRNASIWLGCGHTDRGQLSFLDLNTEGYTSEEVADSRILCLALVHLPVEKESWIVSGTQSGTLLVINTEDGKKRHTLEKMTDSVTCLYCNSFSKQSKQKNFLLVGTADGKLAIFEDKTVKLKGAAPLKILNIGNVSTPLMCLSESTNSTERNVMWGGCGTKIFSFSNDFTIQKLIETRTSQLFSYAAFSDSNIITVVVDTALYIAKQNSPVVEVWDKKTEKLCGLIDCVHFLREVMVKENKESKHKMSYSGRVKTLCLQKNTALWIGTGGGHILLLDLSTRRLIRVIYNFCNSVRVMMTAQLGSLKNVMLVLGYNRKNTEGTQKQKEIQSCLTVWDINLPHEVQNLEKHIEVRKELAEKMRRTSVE

Turning to `C[C@@H]1CN(CC2CCN(c3cc(-c4n[nH]c5ccc(OC6(C)CC6)cc45)ncn3)CC2)C[C@H](C)N1CC1CCN(c2ccc3c(c2F)CN(C2CCC(=O)NC2=O)C3=O)CC1` (stereo partly drawn) [Compound 307, 3-[5-(4-{[(2R,6S)-2,6-dimethyl-4-[(1-{6-[5-(1-methylcyclopropoxy)-1H-indazol-3-yl]pyrimidin-4-yl}piperidin-4-yl)methyl]piperazin-1-yl]methyl}piperidin-1-yl)-4-fluoro-1-oxo-2,3-dihydro-1H-isoindol-2-yl]piperidine-2,6-dione], under setting [1], the Dmax was in the range of 50 to 70%. Under setting [2], the DC50 is less than 10 nM.

On to `COc1c(N2CCN(C[C@H]3CC[C@H](OC4CCN(c5cc(-c6[nH]nc7ccc(OC8(C)CC8)cc67)ncn5)CC4)CC3)CC2)ccc2c1CN(C1CCC(=O)NC1=O)C2=O` (stereo partly shown) [Compound 252, 3-[4-methoxy-1-oxo-5-(4-{[(1r,4r)-4-[(1-{6-[5-(1-methylcyclopropoxy)-2H-indazol-3-yl]pyrimidin-4-yl}piperidin-4-yl)oxy]cyclohexyl]methyl}piperazin-1-yl)-2,3-dihydro-1H-isoindol-2-yl]piperidine-2,6-dione], for which the DC50 under setting [3] is less than 10 nM. Further, the Dmax under setting [4] is 50 to 70%.

In the case of `CC1(Oc2cc3c(-c4cc(N5CCC(CN6CCN(CC7(F)CCN(c8ccc9c(c8F)CN(C8CCC(=O)NC8=O)C9=O)CC7)CC6)CC5)ncn4)[nH]nc3cc2F)CC1` (stereo not shown) [Compound 229, 3-{4-fluoro-5-[4-fluoro-4-({4-[(1-{6-[6-fluoro-5-(1-methylcyclopropoxy)-2H-indazol-3-yl]pyrimidin-4-yl}piperidin-4-yl)methyl]piperazin-1-yl}methyl)piperidin-1-yl]-1-oxo-2,3-dihydro-1H-isoindol-2-yl}piperidine-2,6-dione], the half-maximal degradation concentration (DC50) under setting [3] was less than 10 nM. Also, the Dmax under setting [4] was 50 to 70%.

With `C[C@H]1CN(c2cc(-c3n[nH]c4ccc(OC5(C)CC5)cc34)ncn2)CCN1C[C@H]1CC[C@H](OC2CCN(c3ccc4c(c3F)CN(C3CCC(=O)NC3=O)C4=O)CC2)CC1` (stereo partly drawn) [Compound 348, 3-(4-fluoro-5-(4-(((1s,4r)-4-(((S)-2-methyl-4-(6-(5-(1-methylcyclopropoxy)-1H-indazol-3-yl)pyrimidin-4-yl)piperazin-1-yl)methyl)cyclohexyl)oxy)piperidin-1-yl)-1-oxoisoindolin-2-yl)piperidine-2,6-dione], the Dmax under setting [1] lay in the range of 50 to 70%. For the same compound, under setting [2], the DC50 was less than 10 nM. With `COc1c(N2CCN(CC3(F)CCN(CC4CCN(c5cc(-c6n[nH]c7cnc(OC8(C)CC8)cc67)ncn5)CC4)CC3)CC2)ccc2c1CN(C1CCC(=O)NC1=O)C2=O` (stereo not shown) [Compound 369, 3-{5-[4-({4-fluoro-1-[(1-{6-[5-(1-methylcyclopropoxy)-1H-pyrazolo[3,4-c]pyridin-3-yl]pyrimidin-4-yl}piperidin-4-yl)methyl]piperidin-4-yl}methyl)piperazin-1-yl]-4-methoxy-1-oxo-2,3-dihydro-1H-isoindol-2-yl}piperidine-2,6-dione], under setting [3], the DC50 is less than 10 nM. Besides, under setting [4], the Dmax lay in the range of 50 to 70%. For the compound `CC1(Oc2ccc3n[nH]c(-c4cc(N5CCN(CCN6CCN(CC7CCN(c8ccc9c(c8)CN(C8CCC(=O)NC8=O)C9=O)CC7)CC6)CC5)ncn4)c3c2)CC1` (stereo not shown) [Compound 66, 3-{5-[4-({4-[2-(4-{6-[5-(1-methylcyclopropoxy)-2H-indazol-3-yl]pyrimidin-4-yl}piperazin-1-yl)ethyl]piperazin-1-yl}methyl)piperidin-1-yl]-1-oxo-2,3-dihydro-1H-isoindol-2-yl}piperidine-2,6-dione], the Dmax (endogenous HiBit-tagged LRRK2 in HEK293 cells, 24 hours, read-out: **Endogenous WT Dmax (%)) was not below 70%. Besides, the DC50 (endogenous HiBit-tagged LRRK2 in HEK293 cells, 24 hours, read-out: *Endogenous WT DC50) is less than 10 nM. Turning to `CC1(Oc2ccc3n[nH]c(-c4cc(N5CC(OC6CCN(CC7CCN(c8ccc9c(c8F)CN(C8CCC(=O)NC8=O)C9=O)CC7)CC6)C5)ncn4)c3c2)CC1` (stereo not shown) [Compound 289, 3-{4-fluoro-5-[4-({4-[(1-{6-[5-(1-methylcyclopropoxy)-2H-indazol-3-yl]pyrimidin-4-yl}azetidin-3-yl)oxy]piperidin-1-yl}methyl)piperidin-1-yl]-1-oxo-2,3-dihydro-1H-isoindol-2-yl}piperidine-2,6-dione], the Dmax under setting [1] is not below 70%. In addition, the DC50 under setting [2] was less than 10 nM. On to `COc1c(N2CCC(CN3CCN(CC4CCN(c5cc(-c6n[nH]c7cnc(OC8(C)CC8)cc67)ncn5)CC4)C[C@H]3C)CC2)ccc2c1CN(C1CCC(=O)NC1=O)C2=O` (stereo partly drawn) [Compound 324, 3-[4-methoxy-5-(4-{[(2R)-2-methyl-4-[(1-{6-[5-(1-methylcyclopropoxy)-1H-pyrazolo[3,4-c]pyridin-3-yl]pyrimidin-4-yl}piperidin-4-yl)methyl]piperazin-1-yl]methyl}piperidin-1-yl)-1-oxo-2,3-dihydro-1H-isoindol-2-yl]piperidine-2,6-dione], for which the DC50 under setting [2] was less than 10 nM. As to `CC1(Oc2ccc3[nH]nc(-c4cc(N5CCN(CC6(F)CCN(CC7CCN(c8ccc9c(c8F)CN(C8CCC(=O)NC8=O)C9=O)CC7)CC6)CC5)ncn4)c3c2)CC1` (stereo not shown) [Compound 182, 3-[4-fluoro-5-[4-[[4-fluoro-4-[[4-[6-[5-(1-methylcyclopropoxy)-1H-indazol-3-yl]pyrimidin-4-yl]piperazin-1-yl]methyl]-1-piperidyl]methyl]-1-piperidyl]-1-oxo-isoindolin-2-yl]piperidine-2,6-dione], the Dmax under setting [5] was not below 70%. Also, under setting [6], the DC50 was less than 10 nM. `COc1c(C2CCN([C@H]3C[C@H](OC4CCN(c5cc(-c6[nH]nc7ccc(OC8(C)CC8)cc67)ncn5)CC4)C3)CC2)ccc2c1CN(C1CCC(=O)NC1=O)C2=O` (stereo partly shown) [Compound 329, 3-(4-methoxy-1-oxo-5-{1-[(1r,3r)-3-[(1-{6-[5-(1-methylcyclopropoxy)-2H-indazol-3-yl]pyrimidin-4-yl}piperidin-4-yl)oxy]cyclobutyl]piperidin-4-yl}-2,3-dihydro-1H-isoindol-2-yl)piperidine-2,6-dione]: the Dmax under setting [1] fell in the range of 50 to 70%. The DC50 under setting [2] is less than 10 nM. As to `CC1(Oc2ccc3[nH]nc(-c4cc(N5CCC(CN6CC7CC(C6)N7CC6CCN(c7ccc8c(c7F)CN(C7CCC(=O)NC7=O)C8=O)CC6)CC5)ncn4)c3c2)CC1` (stereo not shown) [Compound 225, 3-{4-fluoro-5-[4-({3-[(1-{6-[5-(1-methylcyclopropoxy)-1H-indazol-3-yl]pyrimidin-4-yl}piperidin-4-yl)methyl]-3,6-diazabicyclo[3.1.1]heptan-6-yl}methyl)piperidin-1-yl]-1-oxo-2,3-dihydro-1H-isoindol-2-yl}piperidine-2,6-dione], the DC50 under setting [3] was less than 10 nM. Moreover, the maximal degradation (Dmax) under setting [4] was in the range of 50 to 70%.

With `CC1(Oc2ccc3[nH]nc(-c4cc(N5CCN(C[C@H]6CC[C@H](CN7CCN(c8ccc9c(c8F)CN(C8CCC(=O)NC8=O)C9=O)CC7)CC6)CC5)ncn4)c3c2)CC1` (stereo partly shown) [Compound 202, 3-[4-fluoro-5-[[4-[[4-[4-[6-[5-(1-methylcyclopropoxy)-1H-indazol-3-yl]pyrimidin-4-yl]piperazin-1-yl]methyl]cyclohexyl]methyl]piperazin-1-yl]-1-oxo-isoindolin-2-yl]piperidine-2,6-dione], under setting [5], the Dmax is not below 70%. In addition, the half-maximal degradation concentration (DC50) under setting [6] is less than 10 nM. For the compound `CC1(Oc2ccc3[nH]nc(-c4cc(N5CCC(CN6CCN(CC7CCN(c8ccc9c(c8Cl)CN(C8CCC(=O)NC8=O)C9=O)CC7)CC6)CC5)ncn4)c3c2)CC1` (stereo not shown) [Compound 239, 3-[4-chloro-5-[4-[[4-[[1-[6-[5-(1-methylcyclopropoxy)-1H-indazol-3-yl]pyrimidin-4-yl]-4-piperidyl]methyl]piperazin-1-yl]methyl]-1-piperidyl]-1-oxo-isoindolin-2-yl]piperidine-2,6-dione], under setting [3], the DC50 was less than 10 nM. In addition, the Dmax under setting [4] is not below 70%.

The term Dmax denotes the greatest extent of degradation seen. What is called DC50 is the concentration at which degradation of the target reaches its halfway point.
